Key:
Type in all cases: biochemical
Conditions in all cases: Table 7
[1] = test system: Rabbit Skeletal myofibrils (rabbit psoas muscle); assay: Myofibril ATPase assay (PK/LDH NADH-coupled), skeletal myofibrils
In short: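 Rabbit psoas myofibrils in pCa (PIPES/CaCl2/EGTA, pH 7.0) buffer; ADP coupled via PK/LDH to NADH loss, read at 340 nm every 1.5–2 min for 75 min. Slopes normalized to vehicle (100%) and fit to 4-parameter logistic for EC25, plus EC50 for inhibitors.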

[2] = biological target: T1, Porcine Ventricle myofibrils (left ventricle of Yucatan minipigs) (Sus scrofa, UniProt P79293); assay: Myofibril ATPase assay (PK/LDH NADH-coupled), ventricle myofibrils
T1 construct: Myofibrils from porcine cardiac muscle was isolated from the left ventricle of Yucatan minipigs; tissue Exemplar Genetics; host or cells: left ventricle of Yucatan minipigs
In short: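 Yucatan minipig left-ventricle myofibrils; ATPase measured by PK/LDH-coupled NADH loss at 340 nm, read every 1.5-2 min for 75 min. Slopes normalized to vehicle (100%) and fit to 4-parameter logistic model; EC25 and, for inhibitors, EC50 calculated.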

[3] = test system: Porcine Atria myofibrils; assay: Myofibril ATPase assay (PK/LDH NADH-coupled), atria myofibrils
In short: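 Porcine atrial myofibril ATPase followed via PK/LDH-coupled NADH depletion, absorbance at 340 nm read every 1.5-2 min over 75 min. Slopes (mAU/min) normalized to vehicle as 100% and fit to a 4-parameter logistic; EC25% derived, plus EC50% for inhibitors.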

T1 sequence (P79293 whole entry): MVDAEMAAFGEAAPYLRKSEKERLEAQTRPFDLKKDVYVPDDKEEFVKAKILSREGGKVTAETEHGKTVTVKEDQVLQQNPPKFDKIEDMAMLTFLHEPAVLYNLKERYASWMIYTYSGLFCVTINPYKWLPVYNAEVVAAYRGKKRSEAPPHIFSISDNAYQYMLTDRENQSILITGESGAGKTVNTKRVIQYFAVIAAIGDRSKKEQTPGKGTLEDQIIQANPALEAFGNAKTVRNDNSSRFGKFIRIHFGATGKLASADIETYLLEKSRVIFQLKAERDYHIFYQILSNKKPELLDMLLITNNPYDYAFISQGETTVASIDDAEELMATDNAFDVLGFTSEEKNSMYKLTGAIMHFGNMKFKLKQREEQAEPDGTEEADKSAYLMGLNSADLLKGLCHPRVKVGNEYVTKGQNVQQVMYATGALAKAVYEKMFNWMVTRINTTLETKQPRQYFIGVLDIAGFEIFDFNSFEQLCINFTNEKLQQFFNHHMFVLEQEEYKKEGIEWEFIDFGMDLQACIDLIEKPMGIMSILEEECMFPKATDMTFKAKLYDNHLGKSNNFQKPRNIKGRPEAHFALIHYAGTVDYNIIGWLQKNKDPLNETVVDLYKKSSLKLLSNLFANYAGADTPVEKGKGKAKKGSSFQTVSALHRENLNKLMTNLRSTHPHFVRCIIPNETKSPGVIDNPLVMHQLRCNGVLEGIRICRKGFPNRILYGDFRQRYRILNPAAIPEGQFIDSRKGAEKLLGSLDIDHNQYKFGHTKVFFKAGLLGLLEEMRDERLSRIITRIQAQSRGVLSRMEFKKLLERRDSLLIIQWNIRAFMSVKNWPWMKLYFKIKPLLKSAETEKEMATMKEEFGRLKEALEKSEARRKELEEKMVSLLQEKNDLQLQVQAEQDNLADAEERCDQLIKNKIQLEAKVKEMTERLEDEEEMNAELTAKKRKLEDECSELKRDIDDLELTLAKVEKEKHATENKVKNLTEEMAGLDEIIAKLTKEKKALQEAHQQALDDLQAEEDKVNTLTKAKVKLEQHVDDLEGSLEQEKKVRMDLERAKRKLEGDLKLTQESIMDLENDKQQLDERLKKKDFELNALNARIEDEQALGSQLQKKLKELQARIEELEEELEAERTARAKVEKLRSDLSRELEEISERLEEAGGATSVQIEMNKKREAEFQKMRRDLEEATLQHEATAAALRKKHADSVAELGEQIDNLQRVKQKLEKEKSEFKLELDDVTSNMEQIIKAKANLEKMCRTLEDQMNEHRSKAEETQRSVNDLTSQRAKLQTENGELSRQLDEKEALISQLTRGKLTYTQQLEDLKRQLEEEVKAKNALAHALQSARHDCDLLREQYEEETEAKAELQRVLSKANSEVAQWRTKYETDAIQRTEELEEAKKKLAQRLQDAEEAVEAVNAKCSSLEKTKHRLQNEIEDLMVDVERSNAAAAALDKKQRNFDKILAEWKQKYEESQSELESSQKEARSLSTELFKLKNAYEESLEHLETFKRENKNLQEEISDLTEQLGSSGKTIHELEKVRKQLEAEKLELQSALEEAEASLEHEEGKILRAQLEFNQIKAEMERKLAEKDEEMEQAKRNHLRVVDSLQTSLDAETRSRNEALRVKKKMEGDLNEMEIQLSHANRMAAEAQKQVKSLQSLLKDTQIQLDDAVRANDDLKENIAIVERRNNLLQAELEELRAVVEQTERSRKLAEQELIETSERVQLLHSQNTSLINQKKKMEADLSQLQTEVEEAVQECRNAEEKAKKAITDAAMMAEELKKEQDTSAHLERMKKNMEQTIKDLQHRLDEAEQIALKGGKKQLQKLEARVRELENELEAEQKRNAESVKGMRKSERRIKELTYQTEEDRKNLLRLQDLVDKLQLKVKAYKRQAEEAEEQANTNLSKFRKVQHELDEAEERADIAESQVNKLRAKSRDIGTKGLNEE

O=C(CN1Cc2c(ccnc2C(F)(F)F)NC1=O)N[C@@H]1COc2cc(F)cc(F)c21 [Compound N18]
Rabbit Psoas IC25 [1]: 0.03098 µM | Porcine Ventricle IC25 [2]: 1.324 µM | Porcine Atria IC25 [3]: 0.12 µM

O=C(CN1Cc2c(ccnc2C(F)(F)F)NC1=O)N[C@H]1COc2cc(F)cc(F)c21 [Compound N19]
Rabbit Psoas IC25 [1]: 2.245 µM | Porcine Ventricle IC25 [2]: 11.46 µM | Porcine Atria IC25 [3]: 2.00 µM

C[C@@H](NC(=O)CN1Cc2cnccc2NC1=O)c1ccc(C#N)cc1F [Compound N20]
Rabbit Psoas IC25 [1]: 0.1315 µM | Porcine Ventricle IC25 [2]: 100 µM | Porcine Atria IC25 [3]: 100.00 µM

C[C@H](NC(=O)CN1Cc2cnccc2NC1=O)c1ccc(C#N)cc1F [Compound N21]
Rabbit Psoas IC25 [1]: 6.632 µM | Porcine Ventricle IC25 [2]: 13.45 µM | Porcine Atria IC25 [3]: 4.36 µM

C[C@@H](NC(=O)CN1Cc2c(ccnc2C#N)NC1=O)c1ccc(C#N)cc1F [Compound N22]
Rabbit Psoas IC25 [1]: 0.2583 µM | Porcine Ventricle IC25 [2]: 100 µM | Porcine Atria IC25 [3]: 100.00 µM

C[C@H](NC(=O)CN1Cc2c(ccnc2C#N)NC1=O)c1ccc(C#N)cc1F [Compound N23]
Rabbit Psoas IC25 [1]: 0.0165 µM | Porcine Ventricle IC25 [2]: 0.1625 µM | Porcine Atria IC25 [3]: 0.28 µM

C[C@H](NC(=O)CN1Cc2c(C#N)cncc2NC1=O)c1ccc(F)cc1F [Compound N24, 2-{5-Cyano-2-oxo-1H,4H-pyrido[3,4-d]pyrimidin-3-yl}-N-[(1S)-1-(2,4-difluorophenyl)ethyl]acetamide]
Rabbit Psoas IC25 [1]: 0.2119 µM | Porcine Ventricle IC25 [2]: 37.65 µM | Porcine Atria IC25 [3]: 2.97 µM

C[C@@H](NC(=O)CN1C(=O)Nc2cccnc2C12CC2)c1ncc(C#N)cc1F [Compound N25]
Rabbit Psoas IC25 [1]: 1.324 µM | Porcine Ventricle IC25 [2]: 100 µM | Porcine Atria IC25 [3]: 13.11 µM

O=C(CN1C(=O)Nc2cccnc2C12CC2)N[C@H](CO)c1ccc(F)cc1F [Compound N27]
Rabbit Psoas IC25 [1]: 100 µM | Porcine Ventricle IC25 [2]: 100 µM | Porcine Atria IC25 [3]: 100.00 µM

O=C(CN1C(=O)Nc2cccnc2C12CC2)N[C@@H](CO)c1ccc(F)cc1F [Compound N28]
Rabbit Psoas IC25 [1]: 0.2814 µM | Porcine Ventricle IC25 [2]: 6.602 µM | Porcine Atria IC25 [3]: 0.41 µM

C[C@@H](NC(=O)CN1C(=O)Nc2cccnc2C12COC2)c1ncc(F)cc1F [Compound N29]
Rabbit Psoas IC25 [1]: 100 µM | Porcine Ventricle IC25 [2]: 100 µM | Porcine Atria IC25 [3]: 100.00 µM

C[C@H](NC(=O)CN1C(=O)Nc2cccnc2C12COC2)c1ncc(F)cc1F [Compound N30]
Rabbit Psoas IC25 [1]: 5.318 µM | Porcine Ventricle IC25 [2]: 100 µM | Porcine Atria IC25 [3]: 35.72 µM

N#Cc1ccc([C@@H](CO)NC(=O)CN2Cc3c(ccnc3C#N)NC2=O)c(F)c1 [Compound N31]
Rabbit Psoas IC25 [1]: 0.0533 µM | Porcine Ventricle IC25 [2]: 1.237 µM | Porcine Atria IC25 [3]: 0.38 µM

N#Cc1ccc([C@H](CO)NC(=O)CN2Cc3c(ccnc3C#N)NC2=O)c(F)c1 [Compound N32]
Rabbit Psoas IC25 [1]: 2.872 µM | Porcine Ventricle IC25 [2]: 100 µM | Porcine Atria IC25 [3]: 100.00 µM

O=C(CN1C(=O)Nc2cccnc2C12CC2)N[C@H]1COc2cc(F)cc(F)c21 [Compound N34]
Rabbit Psoas IC25 [1]: 1.366 µM | Porcine Ventricle IC25 [2]: 100 µM | Porcine Atria IC25 [3]: 8.44 µM

C[C@H](NC(=O)CN1C(=O)Nc2cccnc2C12COC2)c1ccc(F)cc1F [Compound N35]
Rabbit Psoas IC25 [1]: 0.9847 µM | Porcine Ventricle IC25 [2]: 100 µM | Porcine Atria IC25 [3]: 6.39 µM

N#Cc1ccc([C@@H](CO)NC(=O)CN2C(=O)Nc3cccnc3C23CC3)c(F)c1 [Compound N36]
Rabbit Psoas IC25 [1]: 1.604 µM | Porcine Ventricle IC25 [2]: 25.16 µM | Porcine Atria IC25 [3]: 8.01 µM

N#Cc1ccc([C@H](CO)NC(=O)CN2C(=O)Nc3cccnc3C23CC3)c(F)c1 [Compound N37]
Rabbit Psoas IC25 [1]: 0.0599 µM | Porcine Ventricle IC25 [2]: 4.582 µM | Porcine Atria IC25 [3]: 0.20 µM

C[C@@H](NC(=O)CN1Cc2c(C#N)cncc2NC1=O)c1ncc(F)cc1F [Compound N38]
Rabbit Psoas IC25 [1]: 5.343 µM | Porcine Ventricle IC25 [2]: 100 µM | Porcine Atria IC25 [3]: 60.44 µM

C[C@H](NC(=O)CN1Cc2c(C#N)cncc2NC1=O)c1ncc(F)cc1F [Compound N39]
Rabbit Psoas IC25 [1]: 1.979 µM | Porcine Ventricle IC25 [2]: 51.8 µM | Porcine Atria IC25 [3]: 9.59 µM

N#Cc1nccc2c1CN(CC(=O)N[C@H](CO)c1ccc(F)cc1F)C(=O)N2 [Compound N40]
Rabbit Psoas IC25 [1]: 4.177 µM | Porcine Ventricle IC25 [2]: 100 µM | Porcine Atria IC25 [3]: 87.45 µM

N#Cc1nccc2c1CN(CC(=O)N[C@@H](CO)c1ccc(F)cc1F)C(=O)N2 [Compound N41]
Rabbit Psoas IC25 [1]: 0.0762 µM | Porcine Ventricle IC25 [2]: 2.357 µM | Porcine Atria IC25 [3]: 1.12 µM

C[C@H](NC(=O)CN1C(=O)Nc2ccc(O)nc2C12CC2)c1ccc(F)cc1F [Compound N42]
Rabbit Psoas IC25 [1]: 100 µM | Porcine Ventricle IC25 [2]: 100 µM | Porcine Atria IC25 [3]: 100.00 µM

O=C(CN1C(=O)Nc2cccnc2C12CC2)N[C@H](CO)c1ccc(F)cc1F [Compound N43]
Rabbit Psoas IC25 [1]: 100 µM | Porcine Ventricle IC25 [2]: 100 µM | Porcine Atria IC25 [3]: 32.69 µM

O=C(CN1C(=O)Nc2cccnc2C12CC2)N[C@@H](CO)c1ccc(F)cc1F [Compound N44]
Rabbit Psoas IC25 [1]: 0.5658 µM | Porcine Ventricle IC25 [2]: 18.96 µM | Porcine Atria IC25 [3]: 1.18 µM

C[C@H](NC(=O)[C@H](C)N1Cc2nc(C#N)ccc2NC1=O)c1ccc(F)cc1F [Compound N45]
Rabbit Psoas IC25 [1]: 100 µM | Porcine Ventricle IC25 [2]: 100 µM | Porcine Atria IC25 [3]: 14.99 µM

C[C@H](NC(=O)[C@@H](C)N1Cc2nc(C#N)ccc2NC1=O)c1ccc(F)cc1F [Compound N46]
Rabbit Psoas IC25 [1]: 100 µM | Porcine Ventricle IC25 [2]: 100 µM | Porcine Atria IC25 [3]: 100.00 µM

C[C@@H](NC(=O)CN1C(=O)Nc2cccnc2C12CC2)c1ncc(F)cc1F [Compound N47]
Rabbit Psoas IC25 [1]: 0.2942 µM | Porcine Ventricle IC25 [2]: 6.077 µM | Porcine Atria IC25 [3]: 0.67 µM

C[C@H](NC(=O)CN1C(=O)Nc2cccnc2C12CC2)c1ncc(F)cc1F [Compound N48]
Rabbit Psoas IC25 [1]: 100 µM | Porcine Ventricle IC25 [2]: 100 µM | Porcine Atria IC25 [3]: 100.00 µM

O=C(CN1Cc2c(ccnc2C(F)(F)F)NC1=O)N[C@H](CO)c1ncc(F)cc1F [Compound N49]
Rabbit Psoas IC25 [1]: 100 µM | Porcine Ventricle IC25 [2]: 100 µM | Porcine Atria IC25 [3]: 100.00 µM

O=C(CN1Cc2c(ccnc2C(F)(F)F)NC1=O)N[C@@H](CO)c1ncc(F)cc1F [Compound N50]
Rabbit Psoas IC25 [1]: 2.278 µM | Porcine Ventricle IC25 [2]: 100 µM | Porcine Atria IC25 [3]: 9.91 µM

CC(NC(=O)CN1Cc2c(ccnc2C2CC2(F)F)NC1=O)c1ncc(F)cc1F (stereo not drawn) [Compound N51]
Rabbit Psoas IC25 [1]: 100 µM | Porcine Ventricle IC25 [2]: 100 µM | Porcine Atria IC25 [3]: 100.00 µM

Cc1c(F)cnc2c1CN(CC(=O)N[C@H](C)c1ncc(F)cc1F)C(=O)N2 [Compound N52]
Rabbit Psoas IC25 [1]: 15.28 µM | Porcine Ventricle IC25 [2]: 100 µM | Porcine Atria IC25 [3]: 98.42 µM

Cc1c(F)cnc2c1CN(CC(=O)N[C@@H](C)c1ncc(F)cc1F)C(=O)N2 [Compound N53]
Rabbit Psoas IC25 [1]: 100 µM | Porcine Ventricle IC25 [2]: 100 µM | Porcine Atria IC25 [3]: 100.00 µM

C[C@H](NC(=O)CN1Cc2c(Cl)cncc2NC1=O)c1ccc(F)cc1F [Compound N56, 2-{5-Chloro-2-oxo-1H,4H-pyrido[3,4-d]pyrimidin-3-yl}-N-[(1S)-1-(2,4-difluorophenyl)ethyl]acetamide]
Rabbit Psoas IC25 [1]: 86.07 µM | Porcine Ventricle IC25 [2]: 100 µM | Porcine Atria IC25 [3]: 100.00 µM

Cc1c(F)cnc2c1CN(CC(=O)N[C@@H](C)c1ccc(F)cc1F)C(=O)N2 [Compound N57, N-[(1S)-1-(2,4-Difluorophenyl)ethyl]-2-{6-fluoro-5-methyl-2-oxo-1H,4H-pyrido[2,3-d]pyrimidin-3-yl}acetamide]
Rabbit Psoas IC25 [1]: 6.748 µM | Porcine Ventricle IC25 [2]: 100 µM | Porcine Atria IC25 [3]: 12.15 µM

C[C@@H](NC(=O)CN1Cc2nc(C#N)ccc2NC1=O)c1ncc(F)cc1F [Compound N58]
Rabbit Psoas IC25 [1]: 100 µM | Porcine Ventricle IC25 [2]: 100 µM | Porcine Atria IC25 [3]: 100.00 µM

C[C@H](NC(=O)CN1Cc2nc(C#N)ccc2NC1=O)c1ncc(F)cc1F [Compound N59]
Rabbit Psoas IC25 [1]: 100 µM | Porcine Ventricle IC25 [2]: 100 µM | Porcine Atria IC25 [3]: 6.80 µM

C[C@H](NC(=O)CN1Cc2nc(C#N)ccc2NC1=O)c1ccc(F)cc1F [Compound N60, (S)-2-(6-Cyano-2-oxo-1,4-dihydropyrido[3,2-d]pyrimidin-3(2H)-yl)-N-(1-(2,4-difluorophenyl)ethyl)acetamide]
Rabbit Psoas IC25 [1]: 1.385 µM | Porcine Ventricle IC25 [2]: 81.4 µM | Porcine Atria IC25 [3]: 1.15 µM

C[C@@H](NC(=O)CN1Cc2c(ccnc2C#N)NC1=O)c1ncc(F)cc1F [Compound N61]
Rabbit Psoas IC25 [1]: 100 µM | Porcine Ventricle IC25 [2]: 100 µM | Porcine Atria IC25 [3]: 100.00 µM

C[C@H](NC(=O)CN1Cc2c(ccnc2C#N)NC1=O)c1ncc(F)cc1F [Compound N62]
Rabbit Psoas IC25 [1]: 0.1508 µM | Porcine Ventricle IC25 [2]: 5.161 µM | Porcine Atria IC25 [3]: 0.97 µM

C[C@@H](NC(=O)CN1Cc2c(F)cncc2NC1=O)c1ncc(F)cc1F [Compound N63]
Rabbit Psoas IC25 [1]: 100 µM | Porcine Ventricle IC25 [2]: 100 µM | Porcine Atria IC25 [3]: 100.00 µM

Reference: patent US12509431B2, “1,4-dihydroquinazolinone compounds and uses thereof” (Edgewise Therapeutics, Inc., priority 2022, dated 2025)
